pIC50: −log10 of the molar value.
Legend:
[1] = biological target: PTGER2 (EP2) (Homo sapiens (Human), UniProt P43116); test: hEP2 b-arrestin assay (PathHunter HEK 293 PTGER2 b-arrestin cells); assay type: cell-based; settings: antagonistic activity, beta-arrestin assay; read-out: hEP2 b-arr IC50
Procedure: Plate is pre-incubated 15 minutes at 37° C. Then five microliters of PGE2 (final conc. 5 μM) are transferred into the assay plate. Plate is incubated 120 minutes at 37° C.
(each concentration is measured in duplicate)

[2] = biological target: PTGER4 (EP4) (Homo sapiens (Human), UniProt P35408); test: cell-based
Chain of PTGER4 (EP4) (P35408 whole entry): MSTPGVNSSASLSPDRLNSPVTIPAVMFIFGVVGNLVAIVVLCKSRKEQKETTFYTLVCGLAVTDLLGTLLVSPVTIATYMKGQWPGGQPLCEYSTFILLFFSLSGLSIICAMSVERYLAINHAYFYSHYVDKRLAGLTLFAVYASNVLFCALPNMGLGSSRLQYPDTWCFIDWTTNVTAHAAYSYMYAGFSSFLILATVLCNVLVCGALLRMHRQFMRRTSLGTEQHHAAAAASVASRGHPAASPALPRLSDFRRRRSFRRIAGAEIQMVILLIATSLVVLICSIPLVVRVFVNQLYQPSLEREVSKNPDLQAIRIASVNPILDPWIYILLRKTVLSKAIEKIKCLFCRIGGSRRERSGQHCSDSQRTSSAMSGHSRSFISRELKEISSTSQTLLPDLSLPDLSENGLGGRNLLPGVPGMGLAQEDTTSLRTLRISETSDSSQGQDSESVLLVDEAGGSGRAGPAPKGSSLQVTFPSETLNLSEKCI

Chain of PTGER2 (EP2) (P43116 whole entry): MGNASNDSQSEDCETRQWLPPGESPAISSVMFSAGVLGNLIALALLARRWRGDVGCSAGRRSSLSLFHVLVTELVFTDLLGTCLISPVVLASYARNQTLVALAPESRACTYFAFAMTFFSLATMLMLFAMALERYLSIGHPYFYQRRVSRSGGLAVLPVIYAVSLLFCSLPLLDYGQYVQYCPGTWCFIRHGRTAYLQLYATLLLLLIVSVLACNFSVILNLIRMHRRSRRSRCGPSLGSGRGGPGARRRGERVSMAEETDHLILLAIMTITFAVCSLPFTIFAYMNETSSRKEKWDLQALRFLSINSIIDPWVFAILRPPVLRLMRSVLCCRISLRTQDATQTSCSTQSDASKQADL

SMILES	pIC50 [1]	pIC50 [2]
CCCOc1cc(-c2cc(NCCc3cc4ccsc4cc3OC)ncn2)ccc1CC(=O)O [Example 392, (4-{6-[2-(6-Methoxy-benzo[b]thiophen-5-yl)-ethylamino]-pyrimidin-4-yl}-2-propoxy-phenyl)-acetic acid]	7.18	6.53
CCCOc1cc(-c2cc(NCCc3ccc4sccc4c3F)ncn2)ccc1CC(=O)O [Example 393, (4-{6-[2-(4-Fluoro-benzo[b]thiophen-5-yl)-ethylamino]-pyrimidin-4-yl}-2-propoxy-phenyl)-acetic acid]	6.81	6.78
COc1cc2c(c(C)c1CCNc1cc(-c3ccc(C(=O)O)c(OC4CCC4)c3)ncn1)OCCO2 [Example 396, 2-Cyclobutoxy-4-{6-[2-(7-methoxy-5-methyl-2,3-dihydro-benzo[1,4]dioxin-6-yl)-ethylamino]-pyrimidin-4-yl}-benzoic acid]	8.70	7.36
CCCc1cc(-c2cc(NCCc3c(OC)cc4c(c3C)OCCO4)ncn2)ccc1CC(=O)O [Example 397, (4-{6-[2-(7-Methoxy-5-methyl-2,3-dihydro-benzo[1,4]dioxin-6-yl)-ethylamino]-pyrimidin-4-yl}-2-propyl-phenyl)-acetic acid]	8.15	7.46
CCOc1cc(-c2cc(NCCc3c(OC)cc4c(c3C)OCCO4)ncn2)ccc1CC(=O)O [Example 399, (2-Ethoxy-4-{6-[2-(7-methoxy-5-methyl-2,3-dihydro-benzo[1,4]dioxin-6-yl)-ethylamino]-pyrimidin-4-yl}-phenyl)-acetic acid]	8.00	7.52
COc1cc2c(c(C)c1CCNc1cc(-c3ccc(C(=O)O)c(SC)c3)ncn1)OCCO2 [Example 400, 4-{6-[2-(7-Methoxy-5-methyl-2,3-dihydro-benzo[1,4]dioxin-6-yl)-ethylamino]-pyrimidin-4-yl}-2-methylsulfanyl-benzoic acid]	8.70	7.36
CCCc1cc(-c2cc(NCCc3cc4c(cc3OCC)OCCO4)ncn2)ccc1CC(=O)O [Example 402, (4-{6-[2-(7-Ethoxy-2,3-dihydro-benzo[1,4]dioxin-6-yl)-ethylamino]-pyrimidin-4-yl}-2-propyl-phenyl)-acetic acid]	7.66	7.21
CCOc1cc2c(cc1CCNc1cc(-c3cc(F)c(CC(=O)O)c(OCC)c3)ncn1)OCCO2 [Example 403, (2-Ethoxy-4-{6-[2-(7-ethoxy-2,3-dihydro-benzo[1,4]dioxin-6-yl)-ethylamino]-pyrimidin-4-yl}-6-fluoro-phenyl)-acetic acid]	7.24	7.19
CCOc1cc(-c2cc(NCCc3cc4ccsc4c(F)c3OC)ncn2)ccc1C(=O)O [Example 404, 2-Ethoxy-4-{6-[2-(7-fluoro-6-methoxy-benzo[b]thiophen-5-yl)-ethylamino]-pyrimidin-4-yl}-benzoic acid]	7.70	7.10
COc1c(CCNc2cc(-c3ccc(C(=O)O)c(SC)c3)ncn2)cc2ccsc2c1F [Example 405, 4-{6-[2-(7-Fluoro-6-methoxy-benzo[b]thiophen-5-yl)-ethylamino]-pyrimidin-4-yl}-2-methylsulfanyl-benzoic acid]	8.05	7.10
CCOc1cc(-c2cc(NCCc3cc4ccsc4c(F)c3OC)ncn2)ccc1CC(=O)O [Example 406, (2-Ethoxy-4-{6-[2-(7-fluoro-6-methoxy-benzo[b]thiophen-5-yl)-ethylamino]-pyrimidin-4-yl}-phenyl)-acetic acid]	7.35	7.21
CCCc1cc(-c2cc(NCCc3c(OC)cc4c(c3F)OCCO4)ncn2)ccc1CC(=O)O [Example 408, (4-{6-[2-(5-Fluoro-7-methoxy-2,3-dihydro-benzo[1,4]dioxin-6-yl)-ethylamino]-pyrimidin-4-yl}-2-propyl-phenyl)-acetic acid]	7.54	7.62
CC(C)Cc1cc(-c2cc(NCCc3ccc4sccc4c3F)ncn2)ccc1CC(=O)O [Example 409, (4-{6-[2-(4-Fluoro-benzo[b]thiophen-5-yl)-ethylamino]-pyrimidin-4-yl}-2-isobutyl-phenyl)-acetic acid]	6.59	7.24
COc1c(CCNc2cc(-c3ccc(CC(=O)O)c(CC(C)C)c3)ncn2)cc2ccsc2c1F [Example 410, (4-{6-[2-(7-Fluoro-6-methoxy-benzo[b]thiophen-5-yl)-ethylamino]-pyrimidin-4-yl}-2-isobutyl-phenyl)-acetic acid]	6.82	6.95

Further lines, results first:

pIC50 [1]	pIC50 [2]	SMILES
7.01	7.51	COc1cc2c(cc1CCNc1cc(-c3ccc(CC(=O)O)c(CC(C)C)c3)ncn1)OCCO2 [Example 411, (2-Isobutyl-4-{6-[2-(7-methoxy-2,3-dihydro-benzo[1,4]dioxin-6-yl)-ethylamino]-pyrimidin-4-yl}-phenyl)-acetic acid]
7.70	7.40	CCOc1cc2c(cc1CCNc1cc(-c3ccc(CC(=O)O)c(CC(C)C)c3)ncn1)OCCO2 [Example 412, (4-{6-[2-(7-Ethoxy-2,3-dihydro-benzo[1,4]dioxin-6-yl)-ethylamino]-pyrimidin-4-yl}-2-isobutyl-phenyl)-acetic acid]
7.21	7.39	CC(C)Cc1cc(-c2cc(NCCc3ccc4sccc4c3F)ncn2)ccc1C(=O)O [Example 413, 4-{6-[2-(4-Fluoro-benzo[b]thiophen-5-yl)-ethylamino]-pyrimidin-4-yl}-2-isobutyl-benzoic acid]
6.66	7.32	CC(C)Cc1cc(-c2cc(NCCc3cc(F)c4sccc4c3)ncn2)ccc1C(=O)O [Example 414, 4-{6-[2-(7-Fluoro-benzo[b]thiophen-5-yl)-ethylamino]-pyrimidin-4-yl}-2-isobutyl-benzoic acid]
7.20	7.28	COc1c(CCNc2cc(-c3ccc(C(=O)O)c(CC(C)C)c3)ncn2)cc2ccsc2c1F [Example 415, 4-{6-[2-(7-Fluoro-6-methoxy-benzo[b]thiophen-5-yl)-ethylamino]-pyrimidin-4-yl}-2-isobutyl-benzoic acid]
7.42	6.76	CCOc1cc2c(cc1CCNc1cc(-c3ccc(C(=O)O)c(CC(C)C)c3)ncn1)OCCO2 [Example 417, 4-{6-[2-(7-Ethoxy-2,3-dihydro-benzo[1,4]dioxin-6-yl)-ethylamino]-pyrimidin-4-yl}-2-isobutyl-benzoic acid]
7.08	7.66	CCOc1cc(-c2cc(NCCc3ccc4sccc4c3F)ncn2)ccc1OCCC(=O)O [Example 421, 3-(2-Ethoxy-4-{6-[2-(4-fluoro-benzo[b]thiophen-5-yl)-ethylamino]-pyrimidin-4-yl}-phenoxy)-propionic acid]
6.60	7.64	CCOc1cc(-c2cc(NCCc3cc(F)c4sccc4c3)ncn2)ccc1OCCC(=O)O [Example 422, 3-(2-Ethoxy-4-{6-[2-(7-fluoro-benzo[b]thiophen-5-yl)-ethylamino]-pyrimidin-4-yl}-phenoxy)-propionic acid]
7.31	8.00	CCOc1cc(-c2cc(NCCc3c(OC)cc4ccccc4c3C)ncn2)ccc1OCCC(=O)O [Example 423, 3-(2-Ethoxy-4-{6-[2-(3-methoxy-1-methyl-naphthalen-2-yl)-ethylamino]-pyrimidin-4-yl}-phenoxy)-propionic acid]

From patent US11839613B2, “Pyrimidine derivatives as PGE2 receptor modulators” (IDORSIA PHARMACEUTICALS LTD, priority 2017, dated 2023)
